Test results published in patent publication US9409905B2, “Antibacterial compounds and methods for use” (PTC THERAPEUTICS, INC., priority 2011, dated 2016).
Values after ≈ are worked out from the molar mass of the structure shown.

How the values were obtained:
E. coli 25922 = assay: Antibacterial activity, microbroth dilution MIC (Table 1); assay type: cell-based, Escherichia coli; conditions: Escherichia coli; microbroth dilution; control Gram-negative E. coli 25922 strain; read-out: MIC, 25922
Source text: (§1) The antibacterial activity from a microbroth dilution method may be presented as the minimum inhibitory concentration (MIC in μg/mL). The MIC value is the lowest concentration of drug which prevents macroscopically visible growth under test conditions.
(§2) Antibacterial activity of test compounds against the super sensitive Gram-negative Escherichia coli (E. coli) BAS849 bacterium, the control Gram-negative E. coli 25922 strain and the Gram-positive Staphylococcus aureus (S. aureus) 29213 bacterium are shown in Table 1.

E. coli LZ3111 = assay: Antibacterial activity, MIC, quinolone resistant strain (Table 2); assay type: cell-based; conditions: Escherichia coli, LZ3111, read-out: MIC LZ3111
Source text: as §1
Mutations in these regions are known to confer a high level resistance to the quinolone class of antibiotics.

[1] = test system: Escherichia coli (E. coli) BAS849; assay: Antibacterial activity, microbroth dilution MIC (Table 1); assay type: cell-based; conditions: microbroth dilution, super sensitive Gram-negative E. coli BAS849, read-out: MIC, BAS849
Source text: as §1, §2

[2] = test system: Staphylococcus aureus (S. aureus) 29213; assay: as above; assay type: cell-based; conditions: microbroth dilution, Gram-positive S. aureus 29213, read-out: MIC, 29213
Source text: as §1, §2

Compound	MIC (E. coli 25922) [µg/mL]	MIC (E. coli LZ3111) [µg/mL]	MIC [1] [µg/mL]	MIC [2] [µg/mL]
CC(C)c1c(-c2ccc3c(c2)cc(CN2CCC2)n3C)[nH]c(=O)c(C(=O)O)c1O [Cpd 320, 6-(2-(azetidin-1-ylmethyl)-1-methyl-1H-indol-5-yl)-4-hydroxy-5-isopropyl-2-oxo-1,2-dihydropyridine-3-carboxylic acid]	1 to 3.5 (≈ 2.53 to 8.85 µM)	12.5 to 150 (≈ 31.6 to 379 µM)	< 1	3.5 to 12.5 (≈ 8.85 to 31.6 µM)
CCc1cc(C(=O)O)c(=O)[nH]c1-c1ccc2c(c1)cc(CN1CCC(N(C)C)C1)n2C (stereo not shown) [Cpd 128, 6-(2-((3-(dimethylamino)pyrrolidin-1-yl)methyl)-1-methyl-1H-indol-5-yl)-5-ethyl-2-oxo-1,2-dihydropyridine-3-carboxylic acid]	1 to 3.5 (≈ 2.37 to 8.28 µM)	12.5 to 150 (≈ 29.6 to 355 µM)	< 1	12.5 to 150 (≈ 29.6 to 355 µM)
CCc1cc(C(=O)O)c(=O)[nH]c1-c1cc2cc(CN3CCCC3)n(C)c2cc1OC [Cpd 107, 5-ethyl-6-(6-methoxy-1-methyl-2-(pyrrolidin-1-ylmethyl)-1H-indol-5-yl)-2-oxo-1,2-dihydropyridine-3-carboxylic acid]	12.5 to 150 (≈ 30.5 to 366 µM)	12.5 to 150 (≈ 30.5 to 366 µM)	12.5 to 150 (≈ 30.5 to 366 µM)	12.5 to 150 (≈ 30.5 to 366 µM)
CCc1c(-c2ccc3c(c2)cc(CN2C[C@@H](C)O[C@@H](C)C2)n3C)[nH]c(=O)c(C(=O)O)c1O [Cpd 172, 6-(2-(((2S,6R)-2,6-dimethylmorpholino)methyl)-1-methyl-1H-indol-5-yl)-5-ethyl-4-hydroxy-2-oxo-1,2-dihydropyridine-3-carboxylic acid]	12.5 to 150 (≈ 28.4 to 341 µM)	12.5 to 150 (≈ 28.4 to 341 µM)	< 1	3.5 to 12.5 (≈ 7.96 to 28.4 µM)
CCc1c(-c2ccc3c(c2)cc(CNC2CNC2)n3C)[nH]c(=O)c(C(=O)O)c1O.Cl.Cl [Cpd 244, 6-(2-((azetidin-3-ylamino)methyl)-1-methyl-1H-indol-5-yl)-5-ethyl-4-hydroxy-2-oxo-1,2-dihydropyridine-3-carboxylic acid dihydrochloride]	12.5 to 150	12.5 to 150	1 to 3.5	12.5 to 150
CCc1c(-c2ccc3c(c2)cc(CN2CCC2)n3C)[nH]c(=O)c(C(=O)O)c1C(=O)O [Cpd 109, 6-(2-(azetidin-1-ylmethyl)-1-methyl-1H-indol-5-yl)-5-ethyl-2-oxo-1,2-dihydropyridine-3,4-dicarboxylic acid]	12.5 to 150 (≈ 30.5 to 366 µM)	12.5 to 150 (≈ 30.5 to 366 µM)	12.5 to 150 (≈ 30.5 to 366 µM)	12.5 to 150 (≈ 30.5 to 366 µM)
CCc1cc(C(=O)O)c(=O)[nH]c1-c1ccc2c(c1)cc(C1=NCCCN1)n2C [Cpd 86, 5-ethyl-6-(1-methyl-2-(1,4,5,6-tetrahydropyrimidin-2-yl)-1H-indol-5-yl)-2-oxo-1,2-dihydropyridine-3-carboxylic acid]	12.5 to 150 (≈ 33 to 396 µM)	12.5 to 150 (≈ 33 to 396 µM)	12.5 to 150 (≈ 33 to 396 µM)	12.5 to 150 (≈ 33 to 396 µM)
CCc1cc(C(=O)O)c(=O)[nH]c1-c1cc2cc(CN(CC)CC)n(C)c2cc1Cl [Cpd 92, 6-(6-chloro-2-((diethylamino)methyl)-1-methyl-1H-indol-5-yl)-5-ethyl-2-oxo-1,2-dihydropyridine-3-carboxylic acid]	12.5 to 150 (≈ 30.1 to 361 µM)	12.5 to 150 (≈ 30.1 to 361 µM)	12.5 to 150 (≈ 30.1 to 361 µM)	12.5 to 150 (≈ 30.1 to 361 µM)
CCc1cc(C(=O)O)c(=O)[nH]c1-c1cc(F)c2c(c1)cc(CN(C)C)n2C [Cpd 106, 6-(2-((dimethylamino)methyl)-7-fluoro-1-methyl-1H-indol-5-yl)-5-ethyl-2-oxo-1,2-dihydropyridine-3-carboxylic acid]	1 to 3.5 (≈ 2.69 to 9.42 µM)	12.5 to 150 (≈ 33.7 to 404 µM)	< 1	12.5 to 150 (≈ 33.7 to 404 µM)
CCc1cc(C(=O)O)c(=O)[nH]c1-c1cc2cc(CN(C)C)n(C)c2cc1Cl [Cpd 93, 6-(6-chloro-2-((dimethylamino)methyl)-1-methyl-1H-indol-5-yl)-5-ethyl-2-oxo-1,2-dihydropyridine-3-carboxylic acid]	12.5 to 150 (≈ 32.2 to 387 µM)	12.5 to 150 (≈ 32.2 to 387 µM)	12.5 to 150 (≈ 32.2 to 387 µM)	12.5 to 150 (≈ 32.2 to 387 µM)
CCc1cc(C(=O)O)c(=O)[nH]c1-c1ccc2c(c1)cc(CN[C@@H](C)c1ccccc1)n2C [Cpd 117, (S)-5-ethyl-6-(1-methyl-2-((1-phenylethylamino)methyl)-1H-indol-5-yl)-2-oxo-1,2-dihydropyridine-3-carboxylic acid]	< 1	12.5 to 150 (≈ 29.1 to 349 µM)	< 1	12.5 to 150 (≈ 29.1 to 349 µM)
CCc1c(-c2ccc3c(c2)cc(CN[C@H](C)C(F)(F)F)n3C)[nH]c(=O)c(C(=O)O)c1O [Cpd 272, (R)-5-ethyl-4-hydroxy-6-(1-methyl-2-((1,1,1-trifluoropropan-2-ylamino)methyl)-1H-indol-5-yl)-2-oxo-1,2-dihydropyridine-3-carboxylic acid]	12.5 to 150 (≈ 28.6 to 343 µM)	12.5 to 150 (≈ 28.6 to 343 µM)	< 1	1 to 3.5 (≈ 2.29 to 8 µM)
CCc1cc(C(=O)O)c(=O)[nH]c1-c1ccc2c(c1)cc(CN1CCNCC1)n2C [Cpd 139, 5-ethyl-6-(1-methyl-2-(piperazin-1-ylmethyl)-1H-indol-5-yl)-2-oxo-1,2-dihydropyridine-3-carboxylic acid]	12.5 to 150 (≈ 31.7 to 380 µM)	12.5 to 150 (≈ 31.7 to 380 µM)	1 to 3.5 (≈ 2.54 to 8.87 µM)	12.5 to 150 (≈ 31.7 to 380 µM)
CCc1cc(C(=O)O)c(=O)[nH]c1-c1ccc2c(c1)cc(CNC(C)(C)c1ccccc1)n2C [Cpd 115, 5-ethyl-6-(1-methyl-2-((2-phenylpropan-2-ylamino)methyl)-1H-indol-5-yl)-2-oxo-1,2-dihydropyridine-3-carboxylic acid]	< 1	12.5 to 150 (≈ 28.2 to 338 µM)	< 1	1 to 3.5 (≈ 2.25 to 7.89 µM)
CCc1cc(C(=O)O)c(=O)[nH]c1-c1cc(C)c2c(c1)cc(CN(C)C)n2C [Cpd 105, 6-(2-((dimethylamino)methyl)-1,7-dimethyl-1H-indol-5-yl)-5-ethyl-2-oxo-1,2-dihydropyridine-3-carboxylic acid]	3.5 to 12.5 (≈ 9.53 to 34 µM)	12.5 to 150 (≈ 34 to 408 µM)	< 1	12.5 to 150 (≈ 34 to 408 µM)
CCc1cc(C(=O)O)c(=O)[nH]c1-c1cnc2[nH]ccc2c1 [Cpd 55, 5-ethyl-2-oxo-6-(1H-pyrrolo[2,3-b]pyridin-5-yl)-1,2-dihydropyridine-3-carboxylic acid]	12.5 to 150 (≈ 44.1 to 529 µM)	12.5 to 150 (≈ 44.1 to 529 µM)	12.5 to 150 (≈ 44.1 to 529 µM)	12.5 to 150 (≈ 44.1 to 529 µM)
CCc1c(-c2ccc3c(c2)cc(CN2CCC(NC(C)=O)C2)n3C)[nH]c(=O)c(C(=O)O)c1O (stereo not shown) [Cpd 183, 6-(2-((3-acetamidopyrrolidin-1-yl)methyl)-1-methyl-1H-indol-5-yl)-5-ethyl-4-hydroxy-2-oxo-1,2-dihydropyridine-3-carboxylic acid]	1 to 3.5 (≈ 2.21 to 7.73 µM)	12.5 to 150 (≈ 27.6 to 331 µM)	< 1	12.5 to 150 (≈ 27.6 to 331 µM)
CCc1cc(C(=O)O)c(=O)[nH]c1-c1ccc2c(c1)cc(C1=NCCN1)n2C [Cpd 85, 6-(2-(4,5-dihydro-1H-imidazol-2-yl)-1-methyl-1H-indol-5-yl)-5-ethyl-2-oxo-1,2-dihydropyridine-3-carboxylic acid]	12.5 to 150 (≈ 34.3 to 412 µM)	12.5 to 150 (≈ 34.3 to 412 µM)	1 to 3.5 (≈ 2.74 to 9.6 µM)	12.5 to 150 (≈ 34.3 to 412 µM)
CCc1cc(C(=O)O)c(=O)[nH]c1-c1ccc2c(c1)c(CN)cn2C [Cpd 74, 6-(3-(aminomethyl)-1-methyl-1H-indol-5-yl)-5-ethyl-2-oxo-1,2-dihydropyridine-3-carboxylic acid]	12.5 to 150 (≈ 38.4 to 461 µM)	12.5 to 150 (≈ 38.4 to 461 µM)	12.5 to 150 (≈ 38.4 to 461 µM)	12.5 to 150 (≈ 38.4 to 461 µM)
CCc1c(-c2ccc3c(c2)cc(CN2CC(F)(F)C2)n3C)[nH]c(=O)c(C(=O)O)c1O [Cpd 195, 6-(2-((3,3-difluoroazetidin-1-yl)methyl)-1-methyl-1H-indol-5-yl)-5-ethyl-4-hydroxy-2-oxo-1,2-dihydropyridine-3-carboxylic acid]	3.5 to 12.5 (≈ 8.39 to 29.9 µM)	12.5 to 150 (≈ 29.9 to 359 µM)	< 1	1 to 3.5 (≈ 2.4 to 8.39 µM)
CCc1c(-c2ccc3c(c2)cc(CN2CCC[C@H]2CNc2ccccc2)n3C)[nH]c(=O)c(C(=O)O)c1O [Cpd 266, (S)-5-ethyl-4-hydroxy-6-(1-methyl-2-((2-((phenylamino)methyl)pyrrolidin-1-yl)methyl)-1H-indol-5-yl)-2-oxo-1,2-dihydropyridine-3-carboxylic acid]	12.5 to 150 (≈ 25 to 300 µM)	12.5 to 150 (≈ 25 to 300 µM)	< 1	< 1
CCc1cc(C(=O)O)c(=O)[nH]c1-c1ccc2c(c1)cc(CN1C[C@@H](C)O[C@@H](C)C1)n2C [Cpd 138, 6-(2-((cis-2,6-dimethylmorpholino)methyl)-1-methyl-1H-indol-5-yl)-5-ethyl-2-oxo-1,2-dihydropyridine-3-carboxylic acid]	3.5 to 12.5 (≈ 8.26 to 29.5 µM)	12.5 to 150 (≈ 29.5 to 354 µM)	< 1	12.5 to 150 (≈ 29.5 to 354 µM)
CCc1c(-c2ccc3c(c2)cc(CN2C[C@H]4CC[C@@H](N(Cc5ccccc5)Cc5ccccc5)[C@H]4C2)n3C)[nH]c(=O)c(C(=O)O)c1O [Cpd 281, 6-(2-(((3aR,4R,6aS)-4-(dibenzylamino)hexahydrocyclopenta[c]pyrrol-2(1H)-yl)methyl)-1-methyl-1H-indol-5-yl)-5-ethyl-4-hydroxy-2-oxo-1,2-dihydropyridine-3-carboxylic acid]	12.5 to 150 (≈ 19.8 to 238 µM)	12.5 to 150 (≈ 19.8 to 238 µM)	12.5 to 150 (≈ 19.8 to 238 µM)	12.5 to 150 (≈ 19.8 to 238 µM)
CCc1cc(C(=O)O)c(=O)[nH]c1-c1cnc2c(c1)c(C#N)cn2C [Cpd 59, 6-(3-cyano-1-methyl-1H-pyrrolo[2,3-b]pyridin-5-yl)-5-ethyl-2-oxo-1,2-dihydropyridine-3-carboxylic acid]	12.5 to 150 (≈ 38.8 to 465 µM)	12.5 to 150 (≈ 38.8 to 465 µM)	12.5 to 150 (≈ 38.8 to 465 µM)	12.5 to 150 (≈ 38.8 to 465 µM)
CCc1cc(C(=O)O)c(=O)[nH]c1-c1cc2cc(CN3CCCCC3)n(C)c2cc1C [Cpd 90, 6-(1,6-dimethyl-2-(piperidin-1-ylmethyl)-1H-indol-5-yl)-5-ethyl-2-oxo-1,2-dihydropyridine-3-carboxylic acid]	12.5 to 150 (≈ 30.7 to 368 µM)	12.5 to 150 (≈ 30.7 to 368 µM)	12.5 to 150 (≈ 30.7 to 368 µM)	12.5 to 150 (≈ 30.7 to 368 µM)
